Tests used:
[1] = biological target: TRKB (Homo sapiens (Human), UniProt Q16620); assay: cell-based; settings: TrkB cell potency, TRKB PathHunter cell line
Method: (§1) After the Detection Reagent addition, plates are covered and incubated at room temperature for 60 minutes. […] Test compound data are expressed as percentage inhibition defined by HPE and ZPE values for each plate. Percentage inhibition in the presence of test compound is plotted against compound concentration on a log scale to determine an IC50 from the resultant sigmoid curve. Cell Based Assays were carried out using Cell lines from DiscoveRx utilising their PathHunter technology and reagents in an antagonist assay:
(§2) The assays are based upon DiscoveRx's proprietary Enzyme Fragment Complementation (EFC) technology. In the case of the TRK cell lines, the enzyme acceptor (EA) protein is fused to a SH2 protein and the TRK receptor of interest has been tagged with a Prolink tag.
(§3) Upon neurotrophin binding, the TRK receptor becomes phosphorylated, and the tagged SH2 protein binds.
(§4) This means that the IC50 is a good measure of affinity and should be unaffected by concentration neurotrophin stimulant.
(§5) Cryopreserved PathHunter cells are used from either in-house produced batches or bulk batches bought directly from DiscoveRx. Cryopreserved cells are resuscitated, spun 1000 rpm for 4 min to remove freezing media, and resuspended in MEM+0.5% horse serum (both Invitrogen) to 5e^5 cells/ml. The cells are then plated using a Multidrop into Greiner white tissue culture treated plates at 20 ul/well and incubated for 24 h at 37° C., 5% CO2, high humidity. On the day of the assay, the cell plates are allowed to cool to room temperature for 30 min prior to the assay.
(§6) Plates containing 1 ul of serially diluted compound, standard and HPE/ZPE are diluted 1/66 in assay buffer (PBS minus Ca^2+, minus Mg^2+ with 0.05% pluronic F127) using a Wellmate. […] The plates are left at room temperature for a further 2 hours before addition of 10 ul of the DiscoveRx PathHunter detection reagent (made up by adding 1 part Galacton Star, 5 parts Emerald II and 19 parts Cell Assay Buffer as per the manufacturer's instructions).
(§7) After reagent addition, plates are covered and incubated at room temperature for 60 minutes. Luminescence signal is read using an Envision. Test compound data are expressed as percentage inhibition defined by HPE and ZPE values for each plate. Percentage inhibition in the presence of test compound is plotted against compound concentration on a log scale to determine an […] from the resultant sigmoid curve.

[2] = biological target: T1, TRKA (Homo sapiens (Human), UniProt P04629); assay: Isolated TRK enzyme assay (HTRF KinEASE-TK), TRKA; assay type: biochemical; settings: isolated TRKA enzyme; read-out: TrkA enzyme potency
Target sequence in this assay (P04629 441-796): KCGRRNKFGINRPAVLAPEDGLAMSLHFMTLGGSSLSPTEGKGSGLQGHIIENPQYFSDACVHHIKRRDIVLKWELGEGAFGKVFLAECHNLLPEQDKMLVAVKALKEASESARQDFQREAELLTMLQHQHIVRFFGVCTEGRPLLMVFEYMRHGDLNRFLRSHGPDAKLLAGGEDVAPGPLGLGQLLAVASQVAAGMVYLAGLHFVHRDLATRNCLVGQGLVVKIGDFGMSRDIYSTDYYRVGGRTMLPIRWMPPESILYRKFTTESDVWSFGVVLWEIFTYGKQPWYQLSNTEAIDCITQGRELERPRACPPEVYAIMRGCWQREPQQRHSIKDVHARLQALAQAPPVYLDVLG

[3] = biological target: T1, TRKA; assay: Cell based DiscoveRx PathHunter antagonist assay, TRKA cell line; settings: read-out: TrkA cell potency
Method: as §1, §2, §3, §4, §5, §6, §7
Target sequence in this assay (P04629 33-796): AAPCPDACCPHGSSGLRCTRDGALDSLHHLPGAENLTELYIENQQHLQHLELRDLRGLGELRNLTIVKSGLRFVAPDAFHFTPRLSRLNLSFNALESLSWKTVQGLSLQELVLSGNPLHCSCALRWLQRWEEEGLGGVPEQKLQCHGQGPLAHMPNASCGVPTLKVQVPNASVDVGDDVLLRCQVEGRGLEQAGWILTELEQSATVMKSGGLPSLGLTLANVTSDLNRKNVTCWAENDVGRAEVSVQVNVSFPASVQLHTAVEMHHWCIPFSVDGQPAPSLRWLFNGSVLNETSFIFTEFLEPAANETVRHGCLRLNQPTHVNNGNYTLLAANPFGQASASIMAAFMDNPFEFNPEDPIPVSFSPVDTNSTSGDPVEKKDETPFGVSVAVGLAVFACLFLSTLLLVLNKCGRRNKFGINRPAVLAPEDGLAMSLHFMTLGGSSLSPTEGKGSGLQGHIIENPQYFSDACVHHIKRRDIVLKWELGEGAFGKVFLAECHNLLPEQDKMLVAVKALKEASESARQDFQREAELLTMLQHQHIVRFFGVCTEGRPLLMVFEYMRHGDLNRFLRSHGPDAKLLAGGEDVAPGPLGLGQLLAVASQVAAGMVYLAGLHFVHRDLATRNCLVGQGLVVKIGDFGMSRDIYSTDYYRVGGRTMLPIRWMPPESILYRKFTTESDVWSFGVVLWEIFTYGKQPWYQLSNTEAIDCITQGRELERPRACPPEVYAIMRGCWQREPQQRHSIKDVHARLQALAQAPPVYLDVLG

[4] = biological target: MDR1 (Homo sapiens (Human), UniProt P08183); assay: MDCK-MDR1 assay (in vitro brain penetration); assay type: in vitro ADME; settings: for Papp B→A / Papp A→B: human; for Papp B→A: MDCK-MDR1, MDCK-MDR1, B to A, read-out: MDCK MDR1 Papp BA; for Papp A→B / MDCK MDR1 Papp AB: MDCK-MDR1, A to B; for Papp A→B: read-out: MDCK MDR1 Papp AB; for MDCK MDR1 Papp BA: MDCK-MDR1, B to A
Chain of MDR1 (P08183 whole entry): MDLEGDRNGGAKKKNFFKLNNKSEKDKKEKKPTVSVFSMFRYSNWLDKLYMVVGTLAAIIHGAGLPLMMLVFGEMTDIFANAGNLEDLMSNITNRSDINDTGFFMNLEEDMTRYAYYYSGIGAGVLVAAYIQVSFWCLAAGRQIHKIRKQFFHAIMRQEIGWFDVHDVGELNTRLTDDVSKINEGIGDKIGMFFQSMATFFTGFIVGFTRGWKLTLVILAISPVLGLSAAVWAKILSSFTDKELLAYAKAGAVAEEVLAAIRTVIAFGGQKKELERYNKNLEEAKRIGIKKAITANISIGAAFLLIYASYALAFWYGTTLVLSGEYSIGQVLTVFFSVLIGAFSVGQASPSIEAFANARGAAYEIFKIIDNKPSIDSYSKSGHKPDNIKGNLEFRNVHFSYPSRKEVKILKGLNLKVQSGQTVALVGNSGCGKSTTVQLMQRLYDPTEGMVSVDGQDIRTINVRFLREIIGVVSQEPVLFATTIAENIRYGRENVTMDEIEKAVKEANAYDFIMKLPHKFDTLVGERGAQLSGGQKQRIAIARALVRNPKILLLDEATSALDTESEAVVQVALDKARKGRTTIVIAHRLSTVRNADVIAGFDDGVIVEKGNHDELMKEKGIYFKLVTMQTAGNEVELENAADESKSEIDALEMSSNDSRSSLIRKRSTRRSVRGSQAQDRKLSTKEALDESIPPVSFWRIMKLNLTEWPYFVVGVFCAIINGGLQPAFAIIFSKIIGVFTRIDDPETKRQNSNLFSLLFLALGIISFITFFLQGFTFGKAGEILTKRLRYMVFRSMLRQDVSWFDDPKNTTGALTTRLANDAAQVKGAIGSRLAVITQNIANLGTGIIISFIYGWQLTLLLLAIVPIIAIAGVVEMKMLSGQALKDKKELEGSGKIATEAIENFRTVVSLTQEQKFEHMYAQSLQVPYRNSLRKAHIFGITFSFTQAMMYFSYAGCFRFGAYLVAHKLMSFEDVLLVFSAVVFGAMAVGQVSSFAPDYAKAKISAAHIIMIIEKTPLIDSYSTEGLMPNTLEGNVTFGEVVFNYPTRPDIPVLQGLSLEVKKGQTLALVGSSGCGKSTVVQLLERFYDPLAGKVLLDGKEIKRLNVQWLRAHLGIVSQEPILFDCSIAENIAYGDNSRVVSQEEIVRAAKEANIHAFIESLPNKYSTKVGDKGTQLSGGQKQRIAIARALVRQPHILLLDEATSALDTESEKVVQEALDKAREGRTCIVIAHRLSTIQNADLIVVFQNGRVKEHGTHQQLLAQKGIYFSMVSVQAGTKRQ
Description: MDCK-MDR1: MDCK-MDR1 data were collected according to the method described in “Are MDCK Cells Transfected with the Human MDR1 Gene a Good Model of the Human Intestinal Mucosa?”
http://www.springerlink.com/content/qfhqlqbr4fnp3 khf/fulltext.pdf

Chain of TRKB (Q16620 32-822 limits assumed): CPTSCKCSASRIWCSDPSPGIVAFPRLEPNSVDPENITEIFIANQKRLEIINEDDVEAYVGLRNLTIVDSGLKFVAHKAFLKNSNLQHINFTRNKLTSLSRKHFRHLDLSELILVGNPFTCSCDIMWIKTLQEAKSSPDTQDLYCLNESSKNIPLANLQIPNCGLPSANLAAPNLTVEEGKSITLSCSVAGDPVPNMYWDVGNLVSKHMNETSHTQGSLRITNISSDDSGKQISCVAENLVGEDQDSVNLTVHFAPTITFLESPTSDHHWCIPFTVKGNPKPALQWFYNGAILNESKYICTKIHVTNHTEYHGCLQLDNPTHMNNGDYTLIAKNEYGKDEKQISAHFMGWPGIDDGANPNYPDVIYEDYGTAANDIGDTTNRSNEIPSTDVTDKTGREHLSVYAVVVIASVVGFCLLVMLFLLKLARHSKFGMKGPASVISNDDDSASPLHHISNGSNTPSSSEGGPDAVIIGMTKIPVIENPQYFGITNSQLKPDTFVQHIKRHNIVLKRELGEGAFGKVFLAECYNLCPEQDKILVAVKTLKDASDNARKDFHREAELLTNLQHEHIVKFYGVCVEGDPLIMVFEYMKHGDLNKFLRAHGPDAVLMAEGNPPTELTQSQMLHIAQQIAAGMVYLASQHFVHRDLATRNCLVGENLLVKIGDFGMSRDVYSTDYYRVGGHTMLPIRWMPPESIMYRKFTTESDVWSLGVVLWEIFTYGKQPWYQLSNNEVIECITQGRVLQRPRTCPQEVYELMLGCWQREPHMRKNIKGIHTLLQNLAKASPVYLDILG

SMILES	IC50 [1] [nM]	IC50 [2] [nM]	IC50 [3] [nM]	Papp B→A [4] [×10⁻⁶ cm/s]	Papp A→B [4] [×10⁻⁶ cm/s]	MDCK MDR1 Papp AB [4] [×10⁻⁶ cm/s]	MDCK MDR1 Papp BA [4] [×10⁻⁶ cm/s]
CC(CO)n1cc(C(=O)c2cncc(NC(=O)Cc3ccc(F)cn3)c2)c2cnc(N)nc21 (single isomer, unassigned) [Example 37, N-(5-{[2-amino-7-(2-hydroxy-1-methylethyl)-7H-pyrrolo[2,3-d]pyrimidin-5-yl]carbonyl}pyridin-3-yl)-2-(5-fluoropyridin-2-yl)acetamide]	571	67	2250	–	–	–	–
CC(CO)n1cc(C(=O)c2cncc(NC(=O)Cn3ccc(C(F)(F)F)n3)c2)c2cnc(N)nc21 (single isomer, unassigned) [Example 38, N-(5-{[2-amino-7-(2-hydroxy-1-methylethyl)-7H-pyrrolo[2,3-d]pyrimidin-5-yl]carbonyl}pyridin-3-yl)-2-[3-(trifluoromethyl)-1H-pyrazol-1-yl]acetamide]	589	7.2	1060	2.1	< 1	–	–
CC(CO)n1cc(C(=O)c2cncc(NC(=O)Cn3cc(C(F)(F)F)nn3)c2)c2cnc(N)nc21 (single isomer, unassigned) [Example 39, N-(5-{[2-amino-7-(2-hydroxy-1-methylethyl)-7H-pyrrolo[2,3-d]pyrimidin-5-yl]carbonyl}pyridin-3-yl)-2-[4-(trifluoromethyl)-1H-1,2,3-triazol-1-yl]acetamide]	4710	24	> 8660	< 1	< 1	–	–
CC(CO)n1cc(C(=O)c2cncc(NC(=O)Cc3ccc(F)cn3)c2)c2cnc(N)nc21 (single isomer, unassigned) [Example 40, N-(5-{[2-amino-7-(2-hydroxy-1-methylethyl)-7H-pyrrolo[2,3-d]pyrimidin-5-yl]carbonyl}pyridin-3-yl)-2-(5-fluoropyridin-2-yl)acetamide]	506	67	2580	2.4	< 1	–	–
CC(CO)n1cc(C(=O)c2cncc(NC(=O)Cc3ccc(Cl)cn3)c2)c2cnc(N)nc21 (single isomer, unassigned) [Example 41, N-(5-{[2-amino-7-(2-hydroxy-1-methylethyl)-7H-pyrrolo[2,3-d]pyrimidin-5-yl]carbonyl}pyridin-3-yl)-2-(5-chloropyridin-2-yl)acetamide]	70	7.6	203	–	–	<1	6.3
CC(CO)n1cc(C(=O)c2cncc(NC(=O)Cn3ccc(C(F)(F)F)n3)c2)c2cnc(N)nc21 (single isomer, unassigned) [Example 44, N-(5-{[2-amino-7-(2-hydroxy-1-methylethyl)-7H-pyrrolo[2,3-d]pyrimidin-5-yl]carbonyl}pyridin-3-yl)-2-[3-(trifluoromethyl)-1H-pyrazol-1-yl]acetamide]	554	12	996	–	–	<1	1.6
CC(CO)n1cc(C(=O)c2cncc(NC(=O)Cn3cc(C(F)(F)F)nn3)c2)c2cnc(N)nc21 (single isomer, unassigned) [Example 45, N-(5-{[2-amino-7-(2-hydroxy-1-methylethyl)-7H-pyrrolo[2,3-d]pyrimidin-5-yl]carbonyl}pyridin-3-yl)-2-[4-(trifluoromethyl)-1H-1,2,3-triazol-1-yl]acetamide]	3790	25	> 8660	–	–	<1	<1
CC(C)(C)n1cc(C(=O)c2cncc(NC(=O)Cc3ccc(F)cn3)c2)c2cncnc21 [Example 1, N-{5-[(7-tert-Butyl-7H-pyrrolo[2,3-d]pyrimidin-5-yl)carbonyl]pyridin-3-yl}-2-(5-fluoropyridin-2-yl)acetamide]	1.5	3.7	9.5	14	5.5	–	–
CC(C)(C)n1cc(C(=O)c2cncc(NC(=O)Cn3ccc(C4CC4)n3)c2)c2cncnc21 [Example 3, N-{5-[(7-tert-butyl-7H-pyrrolo[2,3-d]pyrimidin-5-yl)carbonyl]pyridin-3-yl}-2-(3-cyclopropyl-1H-pyrazol-1-yl)acetamide]	1.8	4.1	5.1	20	8.7	–	–
CC(C)(C)n1cc(C(=O)c2cncc(NC(=O)Cc3ccc(Cl)cn3)c2)c2cncnc21 [Example 6, N-{5-[(7-tert-butyl-7H-pyrrolo[2,3-d]pyrimidin-5-yl)carbonyl]pyridin-3-yl}-2-(5-chloropyridin-2-yl)acetamide]	1.3	2.5	2	16	6.9	–	–
Cc1cc(C(F)(F)F)nn1CC(=O)Nc1cncc(C(=O)c2cn([C@H](C)CO)c3ncncc23)c1 [Example 17, N-[5-({7-[(1R)-2-Hydroxy-1-methylethyl]-7H-pyrrolo[2,3-d]pyrimidin-5-yl}carbonyl)pyridin-3-yl]-2-[5-methyl-3-(trifluoromethyl)-1H-pyrazol-1-yl]acetamide]	45	23	103	13	< 1	–	–
C[C@H](CO)n1cc(C(=O)c2cncc(NC(=O)Cn3cc(C4CC4)nn3)c2)c2cncnc21 [Example 18, 2-(4-cyclopropyl-1H-1,2,3-triazol-1-yl)-N-[5-({7-[(1R)-2-hydroxy-1-methylethyl]-7H-pyrrolo[2,3-d]pyrimidin-5-yl}carbonyl)pyridin-3-yl]acetamide]	5300	128	> 8660	< 1	< 1	–	–
C[C@H](CO)n1cc(C(=O)c2cncc(NC(=O)Cn3cc(C(F)(F)F)nn3)c2)c2cncnc21 [Example 21, N-[5-({7-[(1R)-2-hydroxy-1-methylethyl]-7H-pyrrolo[2,3-d]pyrimidin-5-yl}carbonyl)pyridin-3-yl]-2-[4-(trifluoromethyl)-1H-1,2,3-triazol-1-yl]acetamide]	1770	71	5740	1.3	< 1	–	–
C[C@H](CO)n1cc(C(=O)c2cncc(NC(=O)Cn3ccc(C(F)(F)F)n3)c2)c2cncnc21 [Example 22, N-[5-({7-[(1R)-2-hydroxy-1-methylethyl]-7H-pyrrolo[2,3-d]pyrimidin-5-yl}carbonyl)pyridin-3-yl]-2-[3-(trifluoromethyl)-1H-pyrazol-1-yl]acetamide]	190	25	596	6.9	< 1	–	–
C[C@H](CO)n1cc(C(=O)c2cncc(NC(=O)Cc3ccc(Cl)cn3)c2)c2cncnc21 [Example 23, 2-(5-chloropyridin-2-yl)-N-[5-({7-[(1R)-2-hydroxy-1-methylethyl]-7H-pyrrolo[2,3-d]pyrimidin-5-yl}carbonyl)pyridin-3-yl]acetamide]	52	26	93	31	< 1	–	–
CC(C)(CO)n1cc(C(=O)c2cncc(NC(=O)Cn3cc(C4CC4)nn3)c2)c2cncnc21 [Example 31, 2-(4-cyclopropyl-1H-1,2,3-triazol-1-yl)-N-(5-{[7-(2-hydroxy-1,1-dimethylethyl)-7H-pyrrolo[2,3-d]pyrimidin-5-yl]carbonyl}pyridin-3-yl)acetamide]	198	18	401	2.6	< 1	–	–
CC(C)(CO)n1cc(C(=O)c2cncc(NC(=O)Cn3cc(C(F)(F)F)nn3)c2)c2cnc(N)nc21 [Example 54, N-(5-{[2-Amino-7-(2-hydroxy-1,1-dimethylethyl)-7H-pyrrolo[2,3-d]pyrimidin-5-yl]carbonyl}pyridin-3-yl)-2-[4-(trifluoromethyl)-1H-1,2,3-triazol-1-yl]acetamide]	174	6.7	368	1.3	< 1	–	–
